# Measurements reported in ChEMBL document CHEMBL1201862, “PubChem BioAssay data set” (2004).
# Active and inactive are the calls of the source.
# How the values were obtained:
# [1] = biological target: T1, Heat shock factor protein 1 (Mus musculus, UniProt P38532); assay: decrease of HSF1-responsive luciferase luminescence – cell-based, NIH3T3, dose retest, confirmation (AID 2382); type: functional;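 note: NIH3T3 fibroblasts with HSF1-driven luciferase reporter stressed by proteasome inhibitor MG132; luminescence from HSF1-driven luciferase expression after 8 hours of MG132 stress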
# T1 sequence (P38532 whole entry): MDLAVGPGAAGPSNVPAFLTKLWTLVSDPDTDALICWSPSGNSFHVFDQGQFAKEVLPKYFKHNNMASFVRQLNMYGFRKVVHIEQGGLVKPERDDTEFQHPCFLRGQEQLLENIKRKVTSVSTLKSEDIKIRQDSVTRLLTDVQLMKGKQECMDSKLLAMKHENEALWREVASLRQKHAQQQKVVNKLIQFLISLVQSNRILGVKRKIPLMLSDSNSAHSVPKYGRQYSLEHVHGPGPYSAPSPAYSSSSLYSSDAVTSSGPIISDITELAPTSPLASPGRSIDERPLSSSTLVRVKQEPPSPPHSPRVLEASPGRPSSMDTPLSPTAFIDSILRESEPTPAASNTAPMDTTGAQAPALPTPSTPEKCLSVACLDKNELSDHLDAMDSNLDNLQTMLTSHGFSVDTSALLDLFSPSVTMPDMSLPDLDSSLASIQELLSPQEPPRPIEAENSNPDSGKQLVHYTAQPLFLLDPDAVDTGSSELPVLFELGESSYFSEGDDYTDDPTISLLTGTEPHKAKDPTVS
# [2] = biological target: T2, Luciferin 4-monooxygenase (Photinus pyralis, UniProt P08659); assay: inhibition of purified Photinus pyralis luciferase – biochemical, luminescence, dose response (AID 1891)
# [3] = Luminescence Cell-Based Dose Confirmation HTS to Identify Inhibitors of Platelet Dense Granule Release. [Related pubchem assays: 1663 (Primary HTS), 1678 (Summary of Project)]; type: functional
# HeLa = assay: viability loss in HeLa cells – cell-based, 24 h, cherry-picked samples, cytotoxicity control, dose response (AID 504726); type: functional; conditions: Homo sapiens;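 note: potency for cytotoxicity as loss of luminescence signal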
# [4] = biological target: T3, Microphthalmia-associated transcription factor (Homo sapiens, UniProt O75030); assay: reducers of TRPM1 reporter luminescence, concentration series – cell-based, SK-MEL-5, cherry-picked, set 3, MITF inhibitor project, dose response (AID 493073); type: functional;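 note: SK-MEL-5 melanoma cells with luciferase driven by the MITF target TRPM1 promoter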
# T3 sequence (O75030 whole entry): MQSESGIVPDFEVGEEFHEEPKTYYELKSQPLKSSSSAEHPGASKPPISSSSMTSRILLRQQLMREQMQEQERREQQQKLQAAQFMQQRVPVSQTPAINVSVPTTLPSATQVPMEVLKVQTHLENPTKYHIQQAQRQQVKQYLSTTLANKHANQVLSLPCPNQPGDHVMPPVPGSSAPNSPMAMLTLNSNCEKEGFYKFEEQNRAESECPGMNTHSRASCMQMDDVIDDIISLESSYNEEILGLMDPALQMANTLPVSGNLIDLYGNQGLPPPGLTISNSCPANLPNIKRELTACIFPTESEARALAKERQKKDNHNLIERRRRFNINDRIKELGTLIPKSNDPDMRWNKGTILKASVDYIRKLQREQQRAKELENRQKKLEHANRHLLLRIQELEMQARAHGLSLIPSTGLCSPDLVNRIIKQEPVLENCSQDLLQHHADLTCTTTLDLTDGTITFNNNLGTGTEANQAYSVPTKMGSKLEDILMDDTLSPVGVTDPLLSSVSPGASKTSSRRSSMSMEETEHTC
# A-375 = assay: proliferation inhibition in MITF-low A375 cells – cell-based, cherry-pick samples, set 2, counter-screen for MITF modulator project, dose response (AID 540335); type: functional; conditions: Homo sapiens
# [5] = reduction of Shn3 3'UTR-driven luciferase in osteoblasts – cell-based, Clone20 osteoblasts, firefly luciferase, cherry-picked, dose response (AID 624132); type: functional;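 note: firefly luciferase luminescence from reporter carrying the Shn3 3'UTR in osteoblasts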
# [6] = loss of viability in HepG2 cells – cell-based, CellTiter-Glo, cherry-picked, cytotoxicity control for Shn3 inhibitor project, dose response (AID 624134); type: functional
# [7] = non-specific 3'UTR reporter inhibition in Clone20-Shn3RL – cell-based, Renilla luciferase, cherry-picked, counter-screen for Shn3 inhibitor project, dose response (AID 624133); type: functional
# [8] = A549 cell cytotoxicity, dose response, cytotoxicity control, plate reader, cherry-pick, antagonist series (AID 743412); type: functional, cell-based
# [9] = blockers of bursicon-stimulated LGR2 cAMP reporter – cell-based, HEK293, CRE-luciferase reporter, cherry pick, set 2, dose response (AID 743343); type: functional;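 note: transfected cells were stimulated with diluted bursicon conditioned medium after compound addition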
# [10] = blockade of melanocortin 4 receptor signaling – cell-based, plate reader, cherry pick, counter-screen for LGR2 antagonist project, dose response (AID 743444); type: functional;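 note: transfected HEK 293 cells stimulated with alpha-MSH peptide; potency of inhibitors of the alpha-MSH evoked signal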
# [11] = viability loss in HEK293 cells – cell-based, plate reader, cherry-picked samples, cytotoxicity control, dose response (AID 743446); type: functional
# [12] = A Cell Based Secondary Assay To Explore Cytotoxicity of Compounds that Sensitize Mycobacterium Tuberculosis to Beta-Lactam Antibiotics.; type: functional
# [13] = Trypanosoma cruzi growth suppression in host cells – NIH3T3 host cells, beta-gal luminescence, confirmation (AID 2044); type: functional, cell-based;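 note: intracellular parasites grown in NIH/3T3 mouse fibroblasts as host cells; luminescent beta-galactosidase reporter signal from transgenic T. cruzi replicating inside host cells; inhibitors lower the luminescence signal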
# [14] = NIH3T3 cell viability loss – ATP luminescence, mouse fibroblasts, counter-screen, dose response (AID 2010); type: functional, cell-based;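 note: cells exposed to compound for about 90 hours before reading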
# [15] = biological target: T2, Luciferin 4-monooxygenase; assay: Counter Screen for Luciferase-based Assay Positives. [Related pubchem assays: 620, 618, 411 ]
# HT-1080 = assay: HT1080 cell viability loss – fluorescence readout (AID 620); type: functional, cell-based; conditions: Homo sapiens
# [16] = biological target: FAD-linked sulfhydryl oxidase ALR (Homo sapiens, UniProt P55789); assay: ALR-catalysed DTT oxidation blockers – biochemical, H2O2 detection, luminescence, cherry-pick, dose response (AID 493248)
# [17] = biological target: Eukaryotic translation initiation factor 4E (Mus musculus, UniProt P63073); assay: blockers of eIF4G binding by eIF4E – biochemical, TR-FRET, dose response (AID 855); type: functional;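 note: potency for disrupting eIF4E binding to eIF4GI seen as loss of FRET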
# Coagulation factor XII = biological target: T4, Coagulation factor XII (Homo sapiens, UniProt P00748); assay: activated coagulation factor XII inhibitor potency, concentration-effect curve, cell-free (AID 716); type: functional
# T4 sequence (P00748 whole entry): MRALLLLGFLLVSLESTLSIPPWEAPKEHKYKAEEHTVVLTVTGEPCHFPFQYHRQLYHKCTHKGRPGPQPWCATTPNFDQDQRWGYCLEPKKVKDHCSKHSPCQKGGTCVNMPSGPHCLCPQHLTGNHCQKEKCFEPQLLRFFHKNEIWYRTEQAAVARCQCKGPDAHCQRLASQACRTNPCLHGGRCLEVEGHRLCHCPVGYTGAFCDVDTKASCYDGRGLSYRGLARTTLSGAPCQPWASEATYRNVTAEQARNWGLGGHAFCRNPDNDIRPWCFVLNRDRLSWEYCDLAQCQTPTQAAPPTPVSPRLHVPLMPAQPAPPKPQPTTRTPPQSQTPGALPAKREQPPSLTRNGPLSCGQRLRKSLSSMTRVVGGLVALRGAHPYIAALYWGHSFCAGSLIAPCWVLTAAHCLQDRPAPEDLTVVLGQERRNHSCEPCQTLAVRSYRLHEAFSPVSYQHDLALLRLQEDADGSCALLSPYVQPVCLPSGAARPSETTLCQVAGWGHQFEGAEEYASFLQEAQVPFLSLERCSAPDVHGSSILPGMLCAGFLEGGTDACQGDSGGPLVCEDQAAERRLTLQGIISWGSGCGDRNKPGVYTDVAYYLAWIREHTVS
# [18] = viability of uninfected HEp-2 cells – cell-based, HTS, cytotoxicity control for RSV inhibitor project, dose response (AID 2410); type: functional; conditions: human respiratory syncytial virus
# cells [19] = assay: cells
# [20] = microbe, parasite or virus in culture; type: functional; conditions: Mycobacterium tuberculosis
# [21] = THP-1 cell cytotoxicity, dose response, cytotoxicity control for non-replicating M. tuberculosis project (AID 489025); type: functional
# [22] = Vero E6 cell cytotoxicity, dose response, cytotoxicity control for non-replicating M. tuberculosis project, secondary assay (AID 492998); type: functional, VeroE6; conditions: Vero C1008
# cells [23] = type: functional
# [24] = biological target: G-protein coupled receptor 55 (Homo sapiens, UniProt Q9Y2T6); assay: inhibition of LPI-stimulated GPR55 beta-arrestin translocation – imaging, U2OS, beta-arrestin-GFP, LPI agonist, primary screen (AID 2013); type: functional;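 note: antagonist potency measured as reduced agonist-driven arrestin aggregation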
# [25] = biological target: T5, Calpain-2 catalytic subunit (Sus scrofa, UniProt P43367); assay: m-calpain protease blockers, concentration series – biochemical, fluorogenic peptide substrate, dose response (AID 1420); type: functional
# T5 sequence (P43367 whole entry): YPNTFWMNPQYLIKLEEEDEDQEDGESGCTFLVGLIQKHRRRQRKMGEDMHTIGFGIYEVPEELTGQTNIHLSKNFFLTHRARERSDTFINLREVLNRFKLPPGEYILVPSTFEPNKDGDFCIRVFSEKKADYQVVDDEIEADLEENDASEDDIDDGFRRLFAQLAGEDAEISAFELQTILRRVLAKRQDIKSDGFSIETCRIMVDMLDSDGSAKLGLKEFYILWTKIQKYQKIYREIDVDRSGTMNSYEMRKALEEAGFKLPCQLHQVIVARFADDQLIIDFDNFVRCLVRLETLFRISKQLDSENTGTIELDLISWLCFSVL
# Protein skinhead-1 = biological target: T6, Protein skinhead-1 (Caenorhabditis elegans, UniProt P34707); type: functional
# T6 sequence (P34707 whole entry): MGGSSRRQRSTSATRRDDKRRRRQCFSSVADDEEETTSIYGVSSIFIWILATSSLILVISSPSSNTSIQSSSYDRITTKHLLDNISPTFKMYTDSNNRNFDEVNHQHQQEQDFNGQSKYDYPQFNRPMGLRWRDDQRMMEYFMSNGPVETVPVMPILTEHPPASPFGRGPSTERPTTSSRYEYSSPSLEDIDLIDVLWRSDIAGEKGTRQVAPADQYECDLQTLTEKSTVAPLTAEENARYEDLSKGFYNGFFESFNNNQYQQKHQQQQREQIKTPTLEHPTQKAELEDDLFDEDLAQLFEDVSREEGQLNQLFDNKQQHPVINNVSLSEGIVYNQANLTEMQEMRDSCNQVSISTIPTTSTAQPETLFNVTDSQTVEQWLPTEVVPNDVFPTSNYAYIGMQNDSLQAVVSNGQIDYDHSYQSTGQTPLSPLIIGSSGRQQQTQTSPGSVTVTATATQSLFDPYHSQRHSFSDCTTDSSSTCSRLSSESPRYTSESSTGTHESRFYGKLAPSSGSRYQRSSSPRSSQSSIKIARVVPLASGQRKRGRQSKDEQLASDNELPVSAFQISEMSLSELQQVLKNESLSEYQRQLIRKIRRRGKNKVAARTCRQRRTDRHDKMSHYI
# T2 sequence (P08659 whole entry): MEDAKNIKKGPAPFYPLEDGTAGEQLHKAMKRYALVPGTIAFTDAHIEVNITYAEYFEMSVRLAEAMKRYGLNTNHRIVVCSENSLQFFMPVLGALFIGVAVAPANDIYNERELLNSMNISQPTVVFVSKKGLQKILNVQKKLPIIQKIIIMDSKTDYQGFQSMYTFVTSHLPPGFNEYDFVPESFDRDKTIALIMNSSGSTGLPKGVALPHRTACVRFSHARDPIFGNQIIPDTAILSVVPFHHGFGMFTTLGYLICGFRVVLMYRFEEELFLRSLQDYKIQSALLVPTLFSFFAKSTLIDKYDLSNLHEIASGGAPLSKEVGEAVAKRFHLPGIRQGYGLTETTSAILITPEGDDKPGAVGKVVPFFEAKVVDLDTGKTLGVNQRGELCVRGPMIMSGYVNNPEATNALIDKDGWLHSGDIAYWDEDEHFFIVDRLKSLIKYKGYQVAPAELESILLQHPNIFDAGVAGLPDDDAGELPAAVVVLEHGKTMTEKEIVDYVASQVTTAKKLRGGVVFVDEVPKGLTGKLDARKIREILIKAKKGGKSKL
# Eukaryotic translation initiation factor 4E, sequence (P63073 whole entry): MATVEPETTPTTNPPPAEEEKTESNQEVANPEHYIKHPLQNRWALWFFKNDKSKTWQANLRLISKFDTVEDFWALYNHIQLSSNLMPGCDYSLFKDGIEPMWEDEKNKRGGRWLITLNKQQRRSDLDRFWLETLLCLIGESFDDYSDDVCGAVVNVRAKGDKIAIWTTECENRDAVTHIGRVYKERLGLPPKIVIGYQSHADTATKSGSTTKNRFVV
# G-protein coupled receptor 55, sequence (Q9Y2T6 whole entry): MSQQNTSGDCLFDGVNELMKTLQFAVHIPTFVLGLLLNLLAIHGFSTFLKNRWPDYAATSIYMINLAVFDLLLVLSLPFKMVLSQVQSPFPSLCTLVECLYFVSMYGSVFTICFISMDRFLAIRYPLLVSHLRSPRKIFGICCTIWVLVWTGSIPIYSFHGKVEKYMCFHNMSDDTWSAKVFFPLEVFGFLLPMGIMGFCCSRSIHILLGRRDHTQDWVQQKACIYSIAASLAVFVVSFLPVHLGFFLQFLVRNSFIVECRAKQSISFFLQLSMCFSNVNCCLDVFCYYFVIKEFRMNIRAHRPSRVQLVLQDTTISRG
# FAD-linked sulfhydryl oxidase ALR, sequence (P55789 whole entry): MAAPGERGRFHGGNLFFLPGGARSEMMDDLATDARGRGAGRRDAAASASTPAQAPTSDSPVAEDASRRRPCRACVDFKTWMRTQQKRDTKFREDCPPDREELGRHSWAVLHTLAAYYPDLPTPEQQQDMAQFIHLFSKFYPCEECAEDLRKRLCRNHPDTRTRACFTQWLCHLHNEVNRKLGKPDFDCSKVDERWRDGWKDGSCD
structure (smiles),measurement,setting,value
COc1cc(SC)ccc1C(=O)Nc1nc(C)cs1,EC50,[1],0.845 µM (active)
same,EC50,[2],0.511 µM (active)
same,EC50,[3],7.22 µM (active)
same,AC50,HeLa,42.3 µM (active)
same,AC50,[4],4.81 µM (active)
same,AC50,A-375,47.4 µM (active)
same,AC50,[5],7.09 µM (active)
same,AC50,[6],> 70 µM (inactive)
same,AC50,[7],35.2 µM (active)
same,AC50,[8],43.9 µM (active)
same,AC50,[9],0.49 µM (active)
same,AC50,[10],0.491 µM (active)
same,AC50,[11],24.9 µM (active)
O=C(C1=C[C@H](c2ccc(Br)cc2)C[C@H](OCCCCO)O1)N1CCN(Cc2ccc3c(c2)OCO3)CC1,CC50,[12],> 40 µM (active)
same,EC50,[1],> 195 µM (not active)
same,EC50,[13],0.346 µM (active)
same,EC50,[14],> 60 µM (not active)
Clc1c(CSc2nc3ccccc3o2)nc2ccccn12,EC50,[15],9.33 µM (active)
same,EC50,HT-1080,> 50 µM (not active)
same,AC50,[16],7.37 µM (active)
NC1=NC(=O)/C(=C\c2ccsc2)S1,IC50,[17],50 µM (inactive)
Cc1cc(NC(=O)CCC(=O)N(CCC(C)C)C(C(=O)NC2CCCC2)c2cccnc2)no1 (stereo not given),AC50,HeLa,> 350 µM (inactive)
Cc1ccc(-c2nnc(O)c(O)c2N=Nc2ccccc2)cc1,CC50,[12],> 40 µM (active)
CC(=O)c1c(C)nn(CC(O)COc2ccc3c(c2)CCC3)c1C (stereo not given),IC50,Coagulation factor XII,> 50 µM (inactive)
Cc1noc(C)c1COC(=O)Cc1ccc(Cl)cc1,IC50,Coagulation factor XII,> 50 µM (inactive)
CC(Nc1ccccc1N1CCCCC1)C(=O)N1CCc2ccccc21 (stereo not given),CC50,[18],> 50 µM (active)
same,IC50,cells [19],15.4 µM (active)
O=C1CC(N2CCN(Cc3ccc4c(c3)OCO4)CC2)C(=O)N1c1cccc(Cl)c1 (stereo not given),IC50,[17],> 64 µM (inactive)
CCCCOCCCn1c(-c2ccco2)nc2nc3ccccc3nc21,CC50,[20],> 40 µM (active)
same,IC50,[17],> 64 µM (inactive)
O=C(N/N=C\c1ccc([N+](=O)[O-])o1)c1cncc(Br)c1,EC50,[13],0.389 µM (active)
same,EC50,[14],> 60 µM (not active)
same,AC50,HeLa,> 350 µM (inactive)
same,CC50,[21],27.4 µM (active)
same,CC50,[22],> 20 µM (active)
same,IC50,cells [23],3.94 µM (active)
c1ccc(CCNc2ncnc3scc(C4COc5ccccc5O4)c23)cc1 (stereo not given),IC50,[24],3.59 µM (active)
same,IC50,[25],10.4 µM (not active)
COc1cc(/C=C/c2cc(C(=O)O)c3ccccc3n2)ccc1OC(F)F,CC50,[18],35.7 µM (active)
same,IC50,cells [19],28.6 µM (active)
c1ccc(-c2nc3cc4ccccc4cc3[nH]2)nc1,EC50,[15],6.86 µM (active)
same,EC50,HT-1080,14.6 µM (active)
same,IC50,Protein skinhead-1,9.19 µM (active)
Cc1nc2ccc(S(=O)(=O)NC(C(=O)Nc3nc4ccc(Cl)cc4s3)C(C)C)cc2s1 (stereo not given),IC50,[24],0.894 µM (active)
CCOC(=O)N1CCN(C(=O)C2CC(c3ccc(F)cc3)=NO2)CC1 (stereo not given),IC50,Coagulation factor XII,> 50 µM (inactive)
COc1ccccc1CNC(=O)c1ccc(SC)cc1OC,CC50,[18],> 50 µM (active)
same,CC50,[12],> 40 µM (active)
Cc1c(C(=O)N2CCN(S(=O)(=O)c3ccccc3F)CC2)oc2c(Cl)cccc12,CC50,[18],31.6 µM (active)
same,IC50,Protein skinhead-1,> 100 µM (inactive)
same,IC50,cells [19],> 50 µM (active)
